For 24 compounds, Kd results are on record in ChEMBL document CHEMBL4184324, “Ligand Desolvation Steers On-Rate and Impacts Drug Residence Time of Heat Shock Protein 90 (Hsp90) Inhibitors” (J Med Chem, 2018).

The test deals with Heat shock protein HSP90 (Homo sapiens, UniProt P07900+P08238). Description: Binding affinity to recombinant N-terminal Hsp90 (unknown origin) by SPR method. The test is classed as protein assay.

As usually defined, the Kd is the concentration at which binding is half-saturated. Regarding `CC(=O)c1ccc(N(C)C(=O)c2cc3c(Cc4cccc(C)c4)n[nH]c3cc2O)cc1`, the Kd turned out to be 0.0254 µM.
For `Cc1cccc(Cc2n[nH]c3cc(O)c(C(=O)N(C)c4cccc(Cl)c4)cc23)c1`, the Kd turned out to be 0.089 µM.
Next, `Cc1cccc(Cc2n[nH]c3cc(O)c(C(=O)N(C)c4ccc(F)cc4)cc23)c1`: 0.073 µM; `CC(=O)N1CCc2ccc(N(C)C(=O)c3cc4c(Cc5cccc(C)c5)n[nH]c4cc3O)cc21`: 0.0518 µM.
Next, `CN(C(=O)c1cc2c(CC3CCCC3)n[nH]c2cc1O)c1ccc(N2CCOCC2)cc1`: 0.0078 µM; `COc1ccc(N(C)C(=O)c2cc3c(Cc4cccc(C)c4)n[nH]c3cc2O)cc1Cl`: 0.0172 µM.
The value for `COc1ccc(N(C)C(=O)c2cc3c(Cc4cccc(C)c4)n[nH]c3cc2O)cc1` was 0.024 µM; that for `Cc1cccc(Cc2n[nH]c3cc(O)c(C(=O)N(C)c4cccc(C)c4)cc23)c1` was 0.07 µM; that for `CC(=O)N1CCc2cc(N(C)C(=O)c3cc4c(Cc5cccc(C)c5)n[nH]c4cc3O)ccc21` was 0.0509 µM.
For `CN(C(=O)c1cc2c(CC3CCCCC3)n[nH]c2cc1O)c1ccc(N2CCOCC2)cc1`, the Kd was 0.042 µM.
The value for `Cc1cccc(Cc2n[nH]c3cc(O)c(C(=O)N(C)c4ccc(CN5CCOCC5)cc4)cc23)c1` was 0.0334 µM; that for `Cc1cccc(Cc2n[nH]c3cc(O)c(C(=O)N(C)c4ccc(OCCCC#N)cc4)cc23)c1` was 0.0325 µM.
Next, `Cc1ccccc1-n1c(-c2cc(C(=O)N(C)Cc3cccc(-c4cccnc4)c3)c(O)cc2O)n[nH]c1=O`: 0.0346 µM; `CCCCc1n[nH]c2cc(O)c(C(=O)N(C)c3ccc(N4CCOCC4)cc3)cc12`: 0.0066 µM; `COc1cccc(N(C)C(=O)c2cc3c(Cc4cccc(C)c4)n[nH]c3cc2O)c1`: 0.043 µM.
Consider `Cc1cccc(Cc2n[nH]c3cc(O)c(C(=O)N(C)c4ccc(CNS(C)(=O)=O)cc4)cc23)c1`, for which the Kd was 0.016 µM.
The value for `CN(C(=O)c1cc2c(C(=O)N3CCCCC3)n[nH]c2cc1O)c1ccc(N2CCOCC2)cc1` was 0.042 µM; that for `CCCc1n[nH]c2cc(O)c(C(=O)N(C)c3ccc(N4CCOCC4)cc3)cc12` was 0.0054 µM; that for `Cc1cccc(Cc2n[nH]c3cc(O)c(C(=O)N(C)c4ccc(Br)cc4)cc23)c1` was 0.1553 µM.
For the compound `Cc1cccc(Cc2n[nH]c3cc(O)c(C(=O)N(C)c4ccc(COCCN(C)C)cc4)cc23)c1`, the dissociation constant (Kd) amounted to 0.0115 µM.
In the case of `Cc1cccc(Cc2n[nH]c3cc(O)c(C(=O)N(C)c4cccc(F)c4)cc23)c1`, the Kd was 0.0612 µM.
The value for `Cc1cccc(Cc2n[nH]c3cc(O)c(C(=O)N(C)c4ccc5c(c4)OCCO5)cc23)c1` was 0.0386 µM; that for `COc1cccc(Cc2n[nH]c3cc(O)c(C(=O)N(C)c4ccc(N5CCOCC5)cc4)cc23)c1` was 0.012 µM; that for `Cc1cccc(Cc2n[nH]c3cc(O)c(C(=O)N(C)c4ccc(Cl)cc4)cc23)c1` was 0.1529 µM.
